Three compounds from ChEMBL document CHEMBL4376831, “Enhancing the Cell Permeability of Stapled Peptides with a Cyclic Cell-Penetrating Peptide” (J Med Chem, 2019) can be followed below.

Molecules are shown by their SMILES. Changes are numbered by the printed parent chain. The source made the active and inactive calls. The rule behind the calls is not given here. *1 amine or outer side, *2 acyl side, *3 side chain or, on linkers, in order; H or OH if unused. Where a SMILES comes first, the peptide text is derived from it. Bridges are numbered along the chain shown (N, C = ends). Roman numbers before positions name the chains, in order. [ ]: non-standard residue; d: D form. The star is where a group is joined. X1 = O=C(O)c1cc(C(=O)*)ccc1-c1c2ccc(=O)cc-2oc2cc(O)ccc12; 2Nal = N[C@@H](Cc1ccc2ccccc2c1)C(=O)O; mXylylene = c1cc(C[*:1])cc(C[*:2])c1; Dap = NC[C@H](N)C(=O)O; AEEA = NCCOCCOCC(=O)O Some results are limits rather than exact numbers.

Data set [1] deals with E3 ubiquitin-protein ligase Mdm2 (Homo sapiens, UniProt Q00987). Nature of the data set: Displacement of TMR-labelled PDI from human GST tagged MDM2 (1 to 139 residues) expressed in Escherichia coli BL21 (DE3) cells preincuabted for 1 hr with TMR-labelled PDI followed by compound addition and measured after 1 hr by fluorescence polarization assay. (In fluorescence polarisation assays a small probe gives low polarisation when free and higher when bound to something large.)
Chain of E3 ubiquitin-protein ligase Mdm2 (Q00987 whole entry, the tested form may be a part): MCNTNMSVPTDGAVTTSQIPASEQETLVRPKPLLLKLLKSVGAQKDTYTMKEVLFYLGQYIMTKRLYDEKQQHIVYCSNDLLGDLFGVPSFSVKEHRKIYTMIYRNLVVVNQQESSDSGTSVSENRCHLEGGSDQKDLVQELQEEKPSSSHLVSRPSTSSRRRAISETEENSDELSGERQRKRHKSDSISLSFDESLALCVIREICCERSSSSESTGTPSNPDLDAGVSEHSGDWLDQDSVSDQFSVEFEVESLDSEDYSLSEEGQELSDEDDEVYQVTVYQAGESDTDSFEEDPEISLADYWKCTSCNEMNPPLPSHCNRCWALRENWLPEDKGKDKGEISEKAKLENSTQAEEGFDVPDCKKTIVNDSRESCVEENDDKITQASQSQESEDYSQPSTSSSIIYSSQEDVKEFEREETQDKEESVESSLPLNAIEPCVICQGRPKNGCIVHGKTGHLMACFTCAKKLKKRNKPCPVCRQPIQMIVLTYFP

Data set [2] concerns HeLa. Nature of the data set: Cytotoxicity against human HeLa cells incubated for 72 hrs using FAM-labeled compound by MTT assay. The format is cell-based.
Data set [3] relates to HeLa. In words: Induction of cell membrane disruption in human HeLa cells incubated for 4 hrs using FAM-labeled compound by LDH assay. It counts as cell-based.
In another data set the test system is SJSA-1. Conditions: Homo sapiens.
Data set [4] in a line: Half life in human serum at 100 uM measured up to 24 hrs by RP-HPLC analysis. The format is ADME, cell-free.
Data set [5] concerns the target T1, Catenin beta-1 (Homo sapiens) (UniProt P35222).
T1 sequence (whole entry): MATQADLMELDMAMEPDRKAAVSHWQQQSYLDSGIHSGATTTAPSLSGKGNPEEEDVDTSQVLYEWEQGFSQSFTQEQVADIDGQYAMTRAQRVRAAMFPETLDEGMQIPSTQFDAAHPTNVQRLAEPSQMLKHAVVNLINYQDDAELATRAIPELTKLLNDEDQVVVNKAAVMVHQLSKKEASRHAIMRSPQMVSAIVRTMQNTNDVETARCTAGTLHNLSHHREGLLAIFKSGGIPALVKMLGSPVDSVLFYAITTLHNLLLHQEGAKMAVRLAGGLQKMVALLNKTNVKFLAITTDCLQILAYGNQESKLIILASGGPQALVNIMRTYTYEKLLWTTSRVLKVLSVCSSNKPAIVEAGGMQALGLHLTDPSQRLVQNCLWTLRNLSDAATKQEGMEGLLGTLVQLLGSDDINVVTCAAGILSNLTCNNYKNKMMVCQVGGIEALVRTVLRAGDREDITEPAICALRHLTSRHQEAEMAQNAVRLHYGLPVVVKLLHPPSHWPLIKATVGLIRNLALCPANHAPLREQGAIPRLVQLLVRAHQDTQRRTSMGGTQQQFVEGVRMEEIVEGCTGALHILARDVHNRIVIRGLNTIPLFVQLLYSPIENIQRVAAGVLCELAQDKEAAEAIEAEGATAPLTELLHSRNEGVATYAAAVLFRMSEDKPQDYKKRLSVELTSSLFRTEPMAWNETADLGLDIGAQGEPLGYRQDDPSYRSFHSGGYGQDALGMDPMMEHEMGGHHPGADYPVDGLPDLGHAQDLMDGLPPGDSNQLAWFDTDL
Nature of the data set: Inhibition of beta-catenin in human HCT116 cells assessed as reduction in axin2 mRNA expression. It counts as cell-based.

The target of data set [6] is T1, Catenin beta-1 (Homo sapiens). In words: Inhibition of beta-catenin in human HCT116 cells assessed as reduction in myc mRNA expression. The format is cell-based.
The test system of data set [7] is SW480. Nature of the data set: Antiproliferative activity against human SW480 cells incubated for 72 hrs by MTT assay. The format is functional, cell-based. On the technique in general: Tetrazolium dyes change colour on reduction, which living cells bring about.
The subject of data set [8] is SW480. In words: Antiproliferative activity against human SW480 cells incubated for 72 hrs by MTT assay relative to control. It counts as functional.
A further data set has as its system MCF7. Nature of the data set: Antiproliferative activity against human MCF7 cells up to 20 uM incubated for 72 hrs by MTT assay. The format is functional, cell-based.
Data set [9] addresses T1, Catenin beta-1 (Homo sapiens). In words: Inhibition of beta-catenin in human SW480 cells assessed as reduction in myc mRNA expression. It counts as cell-based.
Data set [10] shares this target. Nature of the data set: Inhibition of beta-catenin in human SW480 cells assessed as reduction in axin2 mRNA expression. The format is cell-based.
Data set [11] shares this target. Nature of the data set: Inhibition of beta-catenin in human SW480 cells assessed as reduction in LGR5 mRNA expression. The format is cell-based.
The target is the same in data set [12]. In words: Inhibition of beta-catenin in human SW480 cells assessed as reduction in myc protein expression. It counts as cell-based.
For data set [13] the target is unchanged. Nature of the data set: Inhibition of beta-catenin in human SW480 cells assessed as reduction in axin2 protein expression. It counts as cell-based.
Data set [14] has the same target. Nature of the data set: Inhibition of beta-catenin in human SW480 cells assessed as reduction in LGR5 protein expression. It counts as cell-based.
Data set [15] has the same target. Nature of the data set: Inhibition of beta-catenin in human HCT116 cells assessed as reduction in LGR5 mRNA expression. The format is cell-based.
For data set [16] the target is unchanged. Nature of the data set: Inhibition of beta-catenin in human HCT116 cells assessed as reduction in myc protein expression. It counts as cell-based.
Data set [17] has the same target. In words: Inhibition of beta-catenin in human HCT116 cells assessed as reduction in axin2 protein expression. It counts as cell-based.
For data set [18] the target is unchanged. Nature of the data set: Inhibition of beta-catenin in human HCT116 cells assessed as reduction in LGR5 protein expression. The format is cell-based.
Data set [19] concerns SW480. Nature of the data set: Induction of apoptosis in human SW480 cells at 25 uM incubated for 48 hrs by Annexin V/propidium iodide-staining based flow cytometric analysis relative to control. The format is functional. In general terms: Flow cytometry measures light scatter and fluorescence of single cells or particles in a stream.
Another data set deals with DLD-1. Nature of the data set: Induction of apoptosis in human DLD1 cells at 25 uM incubated for 48 hrs by Annexin V/propidium iodide-staining based flow cytometric analysis relative to control. The format is functional.
Data set [20] concerns SW480. In words: Induction of cell membrane disruption in human SW480 cells up to 50 uM incubated for 4 hrs by LDH assay relative to control. It counts as functional, cell-based.
For the next data set, the target named is T2, Catenin beta-1 (Mus musculus, UniProt Q02248).
T2 sequence (Q02248 whole entry): T1 sequence (whole entry) with P706A
In words: Binding affinity to mouse GST tagged beta catenin (133 to 665 residues) expressed in Escherichia coli BL21 (DE3) cells incubated for 1 hr.

Data set [21] concerns SW480. Nature of the data set: Antiproliferative activity against human SW480 cells at 20 uM incubated for 72 hrs by MTT assay. It counts as functional, cell-based.

The IC50 is the concentration that gives 50% inhibition. As usually defined, the half-life is the time in which the quantity being followed falls by half. Low readings indicate fast loss, high ones slow loss. For orientation: EC50 means the concentration that produces a half-maximal response. Low values mean a more potent agent, high ones a less potent agent. As a reminder, the Kd is a measure of binding affinity in units of concentration. A lower Kd goes with tighter binding.

`CC(=O)N[C@@H](CC(C)C)C(=O)N[C@H](C(=O)N[C@@H](C)C(=O)N[C@H]1CC(=O)NCCCC[C@@H](C(=O)N[C@@H](CCC(N)=O)C(=O)N[C@@H](CC(C)C)C(=O)N[C@H](C(=O)N[C@@H](CO)C(=O)NCCOCCOCC(=O)N[C@@H](CCCCNC(=O)CC[C@@H]2NC(=O)[C@@H](CCCNC(=N)N)NC(=O)[C@H](CCCNC(=N)N)NC(=O)[C@@H](CCCNC(=N)N)NC(=O)[C@H](CCCNC(=N)N)NC(=O)[C@H](Cc3ccc4ccccc4c3)NC(=O)[C@@H](Cc3ccccc3)NC2=O)C(N)=O)[C@@H](C)O)NC(=O)[C@H](Cc2c[nH]c3ccccc23)NC(=O)[C@H](Cc2ccc(O)cc2)NC(=O)[C@H](Cc2cnc[nH]2)NC1=O)[C@@H](C)O`: the IC50 in data set [1] is more than 20000 nM. Further, the Activity result in the data set on HeLa [2] and in the data set on HeLa [3] was “Toxic” throughout. Further, in the data set on SJSA-1, the result was inactive.

In turn, `CC[C@H](C)[C@@H]1NC(=O)[C@@H](NC(=O)[C@H](CCC(=O)O)NC(=O)[C@@H]2CCCN2C(=O)[C@H](Cc2ccc(O)cc2)NC(=O)CNC(=O)CNC(C)=O)CC(=O)NCCCC[C@@H](C(=O)N[C@@H](Cc2cnc[nH]2)C(=O)N[C@@H](CC(C)C)C(=O)N[C@@H](CCC(N)=O)C(=O)N[C@@H](CCCNC(=N)N)C(=O)N[C@H](C(=O)N[C@H](C(=O)N[C@@H](CC(C)C)C(=O)NCCOCCOCC(=O)NCCOCCOCC(=O)N[C@@H](CNC(=O)CC[C@@H]2NC(=O)[C@@H](CCCNC(=N)N)NC(=O)[C@H](CCCNC(=N)N)NC(=O)[C@@H](CCCNC(=N)N)NC(=O)[C@H](CCCNC(=N)N)NC(=O)[C@H](Cc3ccc4ccccc4c3)NC(=O)[C@@H](Cc3ccccc3)NC2=O)C(N)=O)[C@@H](C)CC)C(C)C)NC(=O)[C@H](CC(=O)O)NC(=O)[C@H](CC(C)C)NC1=O` (I: Ac-GGYPEDILDKHLQRVIL[AEEA][AEEA][Dap]-NH2 / II: cyclo([2Nal]R[dR]R[dR]E[dF]); lactam I:6-I:10; amide I:20-II:6) gave a half-life at 100 µM in data set [4] of 2 h. For the same compound, the inhibition result in [5], in [6], in data set [9], in [10], in [11] and in [12] was “Active” in each case. For the same compound, the inhibition result in data set [13], in [14], in data set [15], in data set [16], in data set [17] and in data set [18] was “Active” in each case. The Activity entry in the data set on SW480 [7] was “Dose-dependent effect”; with SW480 [8], 60%; with SW480 [19], 10%; with DLD-1, 10%. The EC50 in the data set with SW480 [7] (SW480, 72 h) stood at 1200 nM. For the same compound, the result with MCF7 and in the data set with SW480 [20] was inactive.

In turn, `CC[C@H](C)[C@@H]1NC(=O)[C@@H](NC(=O)[C@H](CCC(=O)O)NC(=O)[C@@H]2CCCN2C(=O)[C@H](Cc2ccc(O)cc2)NC(=O)CNC(=O)CNC(=O)c2ccc(-c3c4ccc(=O)cc-4oc4cc(O)ccc34)c(C(=O)O)c2)CSCc2cccc(c2)CSC[C@@H](C(=O)N[C@@H](Cc2cnc[nH]2)C(=O)N[C@@H](CC(C)C)C(=O)N[C@@H](CCC(N)=O)C(=O)N[C@@H](CCCNC(=N)N)C(=O)N[C@H](C(=O)N[C@H](C(=O)N[C@@H](CC(C)C)C(N)=O)[C@@H](C)CC)C(C)C)NC(=O)[C@H](CC(=O)O)NC(=O)[C@H](CC(C)C)NC1=O` (X1-GGYPECILDCHLQRVIL-NH2; linker 6-10 via mXylylene) yielded a Kd at Catenin beta-1 of 18 nM. Also, the outcome in the data set with SW480 [21] was Active.
